{"source": "patent US20130281397A1", "about": "“TREATMENT OF DISEASES BY EPIGENETIC REGULATION” (RVX Therapeutics Inc., priority 2012, published 2013)", "key": {"Brd4 bromodomain 1": {"molecular_target": "T1, Brd4 bromodomain 1 (Homo sapiens, UniProt O60885)", "T1 construct": "made in house; host or cells: E. coli BL21(DE3)", "experiment": "Inhibition of binding of tetra-acetylated histone H4 and Brd4 bromodomain 1 by TR-FRET", "details": "His-tagged bromodomain 200 nM, biotinylated tetra-acetylated histone H4 peptide 25-50 nM, 2 hours at room temperature", "procedure": "Proteins were cloned and overexpressed with a N-terminal 6×His tag, then purified by nickel affinity followed by size exclusion chromatography. Briefly, E. coli BL21(DE3) cells were transformed with a recombinant expression vector encoding N-terminally […] tagged bromodomains from Brd2, Brd3, or Brd4. Cell cultures were incubated at 37° C. with shaking to the appropriate density and induced overnight with IPTG. The supernatant of lysed cells was loaded onto Ni-IDA column for purification. Eluted protein was pooled, concentrated and further purified by size exclusion chromatography. Fractions representing monomeric protein were pooled, concentrated, aliquoted, and frozen at −80° C. for use in subsequent experiments.\nFor inhibition assays, serially diluted test compound was added to these reactions in a 0.2% final concentration of DMSO. Final buffer concentrations were 30 mM HEPES pH 7.4, 30 mM NaCl, 0.3 mM CHAPS, 20 mM phosphate pH 7.0, 320 mM KF, 0.08% BSA). […] The binding inhibitory activity was shown by a decrease in 665 nm fluorescence relative to 620 nm. IC50 values were determined from a dose response curve."}}}
{"smiles": "O=c1[nH]c(-c2ccc(O)cc2)cc2ccccc12", "note": "[Example 1, 3-(4-Hydroxyphenyl)-2H-isoquinolin-1-one]", "values": [{"measurement": "melting point", "result": "239 to 241", "unit": "°C"}, {"measurement": "FRET activity (<50 uM)", "setting": "Brd4 bromodomain 1", "result": "Active"}]}
{"smiles": "COc1cc(OC)c2c(=O)[nH]c(-c3ccc(O)cc3)cc2c1", "note": "[Example 3, 3-(4-hydroxyphenyl)-6,8-dimethoxyisoquinolin-1(2H)-one]", "values": [{"measurement": "melting point", "result": "245 to 247", "unit": "°C"}, {"measurement": "FRET activity (<50 uM)", "setting": "Brd4 bromodomain 1", "result": "Active"}]}
{"smiles": "COc1cc(OC)c2c(=O)[nH]c(-c3cc(C)c(OCC(C)(C)O)c(C)c3)cc2c1", "note": "[Example 11, 3-(4-(2-hydroxy-2-methylpropoxy)-3,5-dimethylphenyl)-6,8-dimethoxyisoquinolin-1(2H)-one]", "values": [{"measurement": "melting point", "result": "252 to 254", "unit": "°C"}, {"measurement": "FRET activity (<50 uM)", "setting": "Brd4 bromodomain 1", "result": "Active"}]}
{"smiles": "COc1cc2c(c(OC)c1)S(=O)(=O)NC(c1cc(C)c(O)c(C)c1)=C2", "note": "[Example 12, 6,8-dimethoxy-3-(4-hydroxy-3,5-dimethylphenyl)-2H-1,2-benzothiazine-1,1-dioxide]", "values": [{"measurement": "melting point", "result": "246.6 to 247.4", "unit": "°C"}, {"measurement": "FRET activity (<50 uM)", "setting": "Brd4 bromodomain 1", "result": "Active"}]}
{"smiles": "COc1cc(OC)c2c(=O)[nH]c(-c3cc(C(C)(C)C)c(O)c(C(C)(C)C)c3)nc2c1", "note": "[Example 23, 2-(3,5-di-tert-butyl-4-hydroxyphenyl)-5,7-dimethoxyquinazolin-4(3H)-one]", "values": [{"measurement": "melting point", "result": "229.7 to 230.5", "unit": "°C"}, {"measurement": "FRET activity (<50 uM)", "setting": "Brd4 bromodomain 1", "result": "Inactive"}]}
{"smiles": "COc1cc(OC)cc(-c2nc3cc(OC)cc(OC)c3c(=O)[nH]2)c1", "note": "[Example 24, 2-(3,5-dimethoxyphenyl)-5,7-dimethoxyquinazolin-4(3H)-one]", "values": [{"measurement": "melting point", "result": "270 to 272", "unit": "°C"}, {"measurement": "FRET activity (<50 uM)", "setting": "Brd4 bromodomain 1", "result": "Inactive"}]}
{"smiles": "COc1ccc(-c2nc3cc(OC)cc(OC)c3c(=O)[nH]2)cc1", "note": "[Example 25, 5,7-dimethoxy-2-(4-methoxyphenyl)quinazolin-4(3H)-one]", "values": [{"measurement": "melting point", "result": "276 to 277", "unit": "°C"}, {"measurement": "FRET activity (<50 uM)", "setting": "Brd4 bromodomain 1", "result": "Inactive"}]}
{"smiles": "COc1cc(OC)c2c(=O)[nH]c(-c3ccc(O)c(OC)c3)nc2c1", "note": "[Example 26, 2-(4-hydroxy-3-methoxyphenyl)-5,7-dimethoxyquinazolin-4(3H)-one]", "values": [{"measurement": "melting point", "result": "294 to 296", "unit": "°C"}, {"measurement": "FRET activity (<50 uM)", "setting": "Brd4 bromodomain 1", "result": "Active"}]}
{"smiles": "COc1cc(OC)c2c(=O)[nH]c(-c3ccc(O)c(Cl)c3)nc2c1", "note": "[Example 27, 2-(3-chloro-4-hydroxyphenyl)-5,7-dimethoxyquinazolin-4(3H)-one]", "values": [{"measurement": "melting point", "result": "279 to 281", "unit": "°C"}, {"measurement": "FRET activity (<50 uM)", "setting": "Brd4 bromodomain 1", "result": "Active"}]}
{"smiles": "Cc1cc(-c2nc3ccccc3c(=O)[nH]2)cc(C)c1OCCO", "note": "[Example 30, 2-(4-(2-hydroxyethoxy)-3,5-dimethylphenyl)quinazolin-4(3H)-one]", "values": [{"measurement": "melting point", "result": "260 to 261", "unit": "°C"}, {"measurement": "FRET activity (<50 uM)", "setting": "Brd4 bromodomain 1", "result": "Inactive"}]}
{"smiles": "O=c1[nH]c(-c2ccc3c(c2)OCCO3)nc2ccccc12", "note": "[Example 31, 2-(2,3-dihydrobenzo[b][1,4]dioxin-6-yl)quinazolin-4(3H)-one]", "values": [{"measurement": "melting point", "result": "267 to 268 °C (dec.)"}, {"measurement": "FRET activity (<50 uM)", "setting": "Brd4 bromodomain 1", "result": "Inactive"}]}
{"smiles": "COc1cc(OC)c2c(=O)[nH]c(-c3ccc(N(C)C)c4ccccc34)nc2c1", "note": "[Example 32, 2-(4-(dimethylamino)naphthalen-1-yl)-5,7-dimethoxyquinazolin-4(3H)-one]", "values": [{"measurement": "melting point", "result": "269 to 271", "unit": "°C"}, {"measurement": "FRET activity (<50 uM)", "setting": "Brd4 bromodomain 1", "result": "Inactive"}]}
{"smiles": "COc1cc(OC)c2c(=O)[nH]c(-c3ccc(OCC(N)=O)cc3)nc2c1", "note": "[Example 33, 2-(4-(5,7-dimethoxy-4-oxo-3,4-dihydroquinazolin-2-yl)phenoxy)acetamide]", "values": [{"measurement": "melting point", "result": "309 to 311", "unit": "°C"}, {"measurement": "FRET activity (<50 uM)", "setting": "Brd4 bromodomain 1", "result": "Active"}]}
{"smiles": "O=C(O)COc1ccc(-c2nc3ccccc3c(=O)[nH]2)cc1", "note": "[Example 34, 2-(4-(4-oxo-3,4-dihydroquinazolin-2-yl)phenoxy)acetic acid]", "values": [{"measurement": "melting point", "result": "285 to 287", "unit": "°C"}, {"measurement": "FRET activity (<50 uM)", "setting": "Brd4 bromodomain 1", "result": "Inactive"}]}
{"smiles": "CN(C)c1ccc(-c2nc3ccccc3c(=O)[nH]2)c2ccccc12", "note": "[Example 35, 2-(4-(dimethylamino)naphthalen-1-yl)quinazolin-4(3H)-one]", "values": [{"measurement": "melting point", "result": "224 to 226", "unit": "°C"}, {"measurement": "FRET activity (<50 uM)", "setting": "Brd4 bromodomain 1", "result": "Inactive"}]}
{"smiles": "NC(=O)COc1ccc(-c2nc3ccccc3c(=O)[nH]2)cc1", "note": "[Example 36, 2-(4-(4-oxo-3,4-dihydroquinazolin-2-yl)phenoxy)acetamide]", "values": [{"measurement": "melting point", "result": "277.5 to 278.5", "unit": "°C"}, {"measurement": "FRET activity (<50 uM)", "setting": "Brd4 bromodomain 1", "result": "Inactive"}]}
{"smiles": "COc1cc(OC)c2c(=O)[nH]c(-c3ccc4c(c3)OCCO4)nc2c1", "note": "[Example 37, 2-(2,3-dihydrobenzo[b][1,4]dioxin-6-yl)-5,7-dimethoxyquinazolin-4(3H)-one]", "values": [{"measurement": "melting point", "result": "307.5 to 309.6", "unit": "°C"}, {"measurement": "FRET activity (<50 uM)", "setting": "Brd4 bromodomain 1", "result": "Active"}]}
{"smiles": "O=c1[nH]c(-c2ccc(N(CCO)CCO)cc2)nc2ccccc12", "note": "[Example 40, 2-(4-(bis(2-hydroxyethyl)amino)phenyl)quinazolin-4(3H)-one]", "values": [{"measurement": "melting point", "result": "228 to 230", "unit": "°C"}, {"measurement": "FRET activity (<50 uM)", "setting": "Brd4 bromodomain 1", "result": "Inactive"}]}
{"smiles": "COc1cc(OC)c2c(=O)[nH]c(-c3ccc(N(CCO)CCO)cc3)nc2c1", "note": "[Example 41, 2-(4-(bis(2-hydroxyethyl)amino)phenyl)-5,7-dimethoxyquinazolin-4(3H)-one]", "values": [{"measurement": "melting point", "result": "249 to 251", "unit": "°C"}, {"measurement": "FRET activity (<50 uM)", "setting": "Brd4 bromodomain 1", "result": "Active"}]}
{"smiles": "COc1cc2nc(-c3ccc4c(c3)OCCO4)[nH]c(=O)c2cc1OC", "note": "[Example 43, 2-(2,3-dihydrobenzo[b][1,4]dioxin-6-yl)-6,7-dimethoxyquinazolin-4(3H)-one]", "values": [{"measurement": "melting point", "result": "316.4 to 318.2", "unit": "°C"}, {"measurement": "FRET activity (<50 uM)", "setting": "Brd4 bromodomain 1", "result": "Inactive"}]}
{"smiles": "COc1cc(OC)c2c(=O)[nH]c(-c3cc(C)c(OCCN4CCOCC4)c(C)c3)cc2n1", "note": "[Example 45, 7-(3,5-dimethyl-4-(2-morpholinoethoxy)phenyl)-2,4-dimethoxy-1,6-naphthyridin-5(6H)-one]", "values": [{"measurement": "melting point", "result": "212.5 to 212.9", "unit": "°C"}, {"measurement": "FRET activity (<50 uM)", "setting": "Brd4 bromodomain 1", "result": "Active"}]}
{"smiles": "COc1cc2nc(-c3cc(C)c(O)c(C)c3)[nH]c(=O)c2cc1OC", "note": "[Example 47, 2-(4-hydroxy-3,5-dimethylphenyl)-6,7-dimethoxyquinazolin-4(3H)-one]", "values": [{"measurement": "melting point", "result": "> 300", "unit": "°C"}, {"measurement": "FRET activity (<50 uM)", "setting": "Brd4 bromodomain 1", "result": "Active"}]}
{"smiles": "COc1cc(OC)c2c(=O)[nH]c(-c3ccc(CCC(=O)O)cc3)nc2c1", "note": "[Example 48, 3-(4-(5,7-dimethoxy-4-oxo-3,4-dihydroquinazolin-2-yl)phenyl)propanoic acid]", "values": [{"measurement": "melting point", "result": "250.6 to 251.1", "unit": "°C"}, {"measurement": "FRET activity (<50 uM)", "setting": "Brd4 bromodomain 1", "result": "Active"}]}
{"smiles": "CC(=O)Nc1ccc2nc(-c3cc(C)c(O)c(C)c3)[nH]c(=O)c2c1", "note": "[Example 49, N-(2-(4-hydroxy-3,5-dimethylphenyl)-4-oxo-3,4-dihydroquinazolin-6-yl)acetamide]", "values": [{"measurement": "melting point", "result": "336.5 °C (dec.)"}, {"measurement": "FRET activity (<50 uM)", "setting": "Brd4 bromodomain 1", "result": "Inactive"}]}
{"smiles": "COc1cc2nc(-c3cc(C)c(OCC(N)=O)c(C)c3)[nH]c(=O)c2cc1OC", "note": "[Example 50, 2-(4-(6,7-dimethoxy-4-oxo-3,4-dihydroquinazolin-2-yl)-2,6-dimethylphenoxy)acetamide]", "values": [{"measurement": "melting point", "result": "354 to 356", "unit": "°C"}, {"measurement": "FRET activity (<50 uM)", "setting": "Brd4 bromodomain 1", "result": "Inactive"}]}
{"smiles": "COc1cc(OC)c2c(=O)[nH]c(-c3ccc(OCCO)c(Cl)c3)nc2c1", "note": "[Example 51, 2-(3-chloro-4-(2-hydroxyethoxy)phenyl)-5,7-dimethoxyquinazolin-4(3H)-one]", "values": [{"measurement": "melting point", "result": "287 to 288 °C (dec.)"}, {"measurement": "FRET activity (<50 uM)", "setting": "Brd4 bromodomain 1", "result": "Inactive"}]}
{"smiles": "COc1cc(OC)c2c(=O)[nH]c(-c3cc(C)c(OCCO)c(C)c3)cc2n1", "note": "[Example 56, 7-(4-(2-hydroxyethoxy)-3,5-dimethylphenyl)-2,4-dimethoxy-1,6-naphthyridin-5(6H)-one]", "values": [{"measurement": "melting point", "result": "224.9 to 225.4", "unit": "°C"}]}
